Tested on: Allergic Conjunctivitis Model
Test: Alleviating action for allergic conjunctivitis model (Itch-Scratch response after OA challenge)
Assay type: in vivo
Conditions: OA-sensitized Wistar rats; positive control 0.3 w/v % suspension in physiological saline dropped into the eyes 10 minutes before OA challenge; scratching counted over 20 minutes after OA
Method: or the experiment, Wistar rats (CLEA Japan) were used. The rats were sensitized by intraperitoneal administration of ovalbumin (OA, made by Sigma) in an amount of 100 μg and 10 mg of aluminum hydroxide (Alum, made by Pierce Co.) suspended in 1 mL of physiological saline. Allergic conjunctivitis was induced using rats after 3 weeks from the date of sensitization by dropping into the eyes of 10 μg OA solution prepared by physiological saline to a concentration of 30 mg/mL. The medicine was suspended at a concentration of 1.0 w/v % in physiological saline and dropped into the eyes 10 minutes before OA challenge to induce conjunctivitis (as a positive control drug, diphenhydramine suspended in a concentration of 0.3 w/v % in physiological saline was dropped in the eyes 10 minutes before OA challenge to induce conjunctivitis). For the effect of the compound, the number of times of the action of using the hind legs to scratch the eye area (Itch-Scratch response; considered to be an indicator of itchiness) observed in the 20-minute period after dropping the OA was counted and used to find the rate of inhibition of itchiness by the following formula: Control group: presensitized rats in whose eyes physiological saline is dropped 10 minutes before using OA to induce conjunctivitis Untreated group: unsensitized rats in whose eyes physiological saline is dropped. Calculation Formula: Inhibition rate(%)=100−(test substance group−untreated group/(control group−untreated group)×100

In the case of `CN(C)CCOC(c1ccccc1)c1ccccc1` [Diphenhydramine, diphenhydramine, reference compound], the “Inhibition rate (%) of Itch-Scratch response” value (“Inhibition rate (%)” below) is reported as 64.6%.

Same assay, conditions: OA-sensitized Wistar rats; test substance 1.0 w/v % suspension in physiological saline dropped into the eyes 10 minutes before OA challenge; scratching counted over 20 minutes after OA

Compared with `COc1ccc(NC2=C(C)C(=O)CC2)cc1O[C@@H]1C[C@H]2CC[C@@H]1C2` (racemic) [Compound 2, 3-[3-[(1RS,2RS,4SR)-bicyclo[2.2.1]hept-2-yloxy]-4-methoxyanilino]-2-methyl-2-cyclopenten-1-one], `COc1ccc(NC2=C(C)C(=O)CC2)cc1O[C@H]1C[C@@H]2CC[C@H]1C2` [Compound 5, (+)-3-[3-[(1S,2S,4R)-bicyclo[2.2.1]hept-2-yloxy]-4-methoxyanilino]-2-methyl-2-cyclopenten-1-one] is higher in “Inhibition rate (%)” value: 62.9% for the first, 97.1% for the second.

First: CCC1=C(Nc2ccc(OC)c(O[C@@H]3C[C@H]4CC[C@@H]3C4)c2)CCC1=O (racemic) [Compound 3, 3-[3-[(1RS,2RS,4SR)-bicyclo[2.2.1]hept-2-yloxy]-4-methoxyanilino]-2-ethyl-2-cyclopenten-1-one]
Second: COc1ccc(NC2=C(C)C(=O)CC2)cc1O[C@@H]1C[C@H]2CC[C@@H]1C2 [Compound 4, (−)-3-[3-[(1R,2R,4S)-bicyclo[2.2.1]hept-2-yloxy]-4-methoxyanilino]-2-methyl-2-cyclopenten-1-one]
The “Inhibition rate (%)” value of the first is lower: 63.5% for the first, 68.6% for the second.

With `COc1ccc(N(Cc2ccc3ccccc3c2)C2=CC(=O)CC2)cc1OC1CCCC1` [Compound 1, 3-[3-cyclopentyloxy-4-methoxy-N-(2-naphthylmethyl)anilino]-2-cyclopenten-1-one] the “Inhibition rate (%)” value was 82.7%.

Reference: US7772258B2, “Agent for treatment of allergic eye disease” (Nikken Chemicals Co., Ltd., priority 2001, dated 2010)
